Laboratory results from patent US20260209214A1, “LSD1 MODULATORS” (RECURSION PHARMACEUTICALS, INC., priority 2022, published 2026).

Each compound was assayed against Recombinant human LSD1 (Homo sapiens, UniProt O60341) (assay: LSD1 inhibition assay (HTRF LSD1 Histone H3K4 mono-demethylation assay, me1->me0)). Conditions: 20 nM recombinant human LSD1, 95 nM H3K4(me1) biotinylated peptide, 15 min preincubation, 60 min at 25° C., read-out: LSD1 inhibition IC50 (nM range).
Format: biochemical
Experimental: LSD1 biochemical activity was measured using the HTRF® LSD1 Histone H3K4 mono-demethylation assay (me1->me0). Briefly, the enzymatic buffer was prepared by addition of 50 mM Tris-HCl (Sigma cat #T2663-IL), 50 mM NaCl (ThermoFisher cat #AM9759) and 0.01% Tween 20 (ThermoFisher cat #J20605.AP) in distilled water (final pH 8.5). This buffer was supplemented with 10 μM FAD (Fisher Scientific cat #11411838) and 1 mM DTT (Sigma cat #D0632). For the assay, H3K4(me1) biotinylated peptide substrate (Anaspec, cat #64355) was added to provide a final assay concentration of 95 nM. The streptavidin-XL665 (Cisbio cat #610SAXLA) and H3K4 me0-Eu(K) antibody-cryptate (Cisbio, cat #61 KAOKAD) detection reagents were mixed according to the manufacturer's instructions. Test compounds were diluted in DMSO in a series of 10 semi-log step doses; 10 nL of each compound dose were dispensed in 384 well plates. Recombinant human LSD1 was diluted into enzymatic buffer to provide a final assay concentration of 20 nM and added to the tested compounds for 15 minutes. The reaction was started by addition of the substrate and incubated at 25° C. for 60 minutes. The detection reagents were added, and the plate was incubated in the dark for 90 minutes. Fluorescence was measured on an Envision 2103 plate reader with optical setup for […] in the HTRF mode. The ratio of acceptor and donor emission signals was calculated for each well. Percent inhibition values were calculated from the HTRF ratios at different doses and fitted to a 4-parameter logistic curve to determine IC50 values. […]

Structure (SMILES) | IC50 [nM]
N#Cc1ccc(-c2cccc(CN3[C@@H]4CC[C@H]3[C@@H](N)C4)c2OCC2CC2)cc1F (racemic) [Example 245, 3'-{[(1S,2S,4R)-2-amino-7-azabicyclo[2.2.1]heptan-7-yl]methyl}-2'-(cyclopropylmethoxy)-3-fluoro-[1,1'-biphenyl]-4-carbonitrile] | 25 to 100
N#Cc1ccc(-c2cc(CN3[C@@H]4CC[C@H]3[C@@H](N)C4)ccc2CC2COC2)cc1F (racemic) [Example 246, 5'-{[(1S,2S,4R)-2-amino-7-azabicyclo[2.2.1]heptan-7-yl]methyl}-3-fluoro-2'-[(oxetan-3-yl)methyl]-[1,1'-biphenyl]-4-carbonitrile] | 100 to 1000
CC1CC1c1c(CN2[C@@H]3CC[C@H]2[C@@H](N)C3)cccc1-c1ccc(C#N)c(F)c1 (mixture of isomers) [Example 247, 3'-{[(1S,2S,4R)-2-amino-7-azabicyclo[2.2.1]heptan-7-yl]methyl}-3-fluoro-2'-(2-methylcyclopropyl)-[1,1'-biphenyl]-4-carbonitrile] | 25 to 100
N#Cc1ccc(-c2cccc(CN3[C@@H]4CC[C@H]3[C@@H](N)C4)c2C2=CCOCC2)cc1F (racemic) [Example 249, 3'-{[(1S,2S,4R)-2-amino-7-azabicyclo[2.2.1]heptan-7-yl]methyl}-2'-(3,6-dihydro-2H-pyran-4-yl)-3-fluoro-[1,1'-biphenyl]-4-carbonitrile] | 25 to 100
CC(C)Oc1ccc(CN2[C@@H]3CC[C@H]2[C@@H](N)C3)cc1-c1ccc(C#N)c(F)c1 (racemic) [Example 250, 5'-{[(1S,2S,4R)-2-amino-7-azabicyclo[2.2.1]heptan-7-yl]methyl}-3-fluoro-2'-(propan-2-yloxy)-[1,1'-biphenyl]-4-carbonitrile] | 10 to 25
N#Cc1ccc(-c2cc(CN3[C@@H]4CC[C@H]3[C@@H](N)C4)ccc2N2CC3(CC3)C2)cc1F (racemic) [Example 251, 5'-{[(1S,2S,4R)-2-amino-7-azabicyclo[2.2.1]heptan-7-yl]methyl}-2'-{5-azaspiro[2.3]hexan-5-yl}-3-fluoro-[1,1'-biphenyl]-4-carbonitrile] | 25 to 100
N#Cc1ccc(-c2cc(CN3[C@@H]4CC[C@H]3[C@@H](N)C4)ccc2-c2ccsn2)cc1F (racemic) [Example 252, 5'-{[(1S,2S,4R)-2-amino-7-azabicyclo[2.2.1]heptan-7-yl]methyl}-3-fluoro-2'-(1,2-thiazol-3-yl)-[1,1'-biphenyl]-4-carbonitrile] | 25 to 100
N#Cc1ccc(-c2cc(CN3[C@@H]4CC[C@H]3[C@@H](N)C4)ccc2-c2nccs2)cc1F (racemic) [Example 253, 5'-{[(1S,2S,4R)-2-amino-7-azabicyclo[2.2.1]heptan-7-yl]methyl}-3-fluoro-2'-(1,3-thiazol-2-yl)-[1,1'-biphenyl]-4-carbonitrile] | 25 to 100
CN(CC1CC1)c1ccc(CN2[C@@H]3CC[C@H]2[C@@H](N)C3)cc1-c1ccc(C#N)c(F)c1 (racemic) [Example 254, 5'-{[(1S,2S,4R)-2-amino-7-azabicyclo[2.2.1]heptan-7-yl]methyl}-2'-[(cyclopropylmethyl)(methyl)amino]-3-fluoro-[1,1'-biphenyl]-4-carbonitrile] | 10 to 25
N#Cc1ccc(-c2cc(CN3[C@@H]4CC[C@H]3[C@@H](N)C4)ccc2N2CCCCC2)cc1F (racemic) [Example 255, 5'-{[(1S,2S,4R)-2-amino-7-azabicyclo[2.2.1]heptan-7-yl]methyl}-3-fluoro-2'-(piperidin-1-yl)-[1,1'-biphenyl]-4-carbonitrile] | 10 to 25
Cc1cccc(-c2ccc(CN3[C@@H]4CC[C@H]3[C@@H](N)C4)cc2-c2ccc(C#N)c(F)c2)n1 (racemic) [Example 256, 5'-{[(1S,2S,4R)-2-amino-7-azabicyclo[2.2.1]heptan-7-yl]methyl}-3-fluoro-2'-(6-methylpyridin-2-yl)-[1,1'-biphenyl]-4-carbonitrile] | 25 to 100
Cc1cccnc1-c1ccc(CN2[C@@H]3CC[C@H]2[C@@H](N)C3)cc1-c1ccc(C#N)c(F)c1 (racemic) [Example 257, 5'-{[(1S,2S,4R)-2-amino-7-azabicyclo[2.2.1]heptan-7-yl]methyl}-3-fluoro-2'-(3-methylpyridin-2-yl)-[1,1'-biphenyl]-4-carbonitrile] | 10 to 25
N#Cc1ccc(-c2cc(CN3[C@@H]4CC[C@H]3[C@@H](N)C4)ccc2-c2ccc(F)cn2)cc1F (racemic) [Example 258, 5'-{[(1S,2S,4R)-2-amino-7-azabicyclo[2.2.1]heptan-7-yl]methyl}-3-fluoro-2'-(5-fluoropyridin-2-yl)-[1,1'-biphenyl]-4-carbonitrile] | 25 to 100
CC1CCN(c2ccc(CN3[C@@H]4CC[C@H]3[C@@H](N)C4)cc2-c2ccc(C#N)c(F)c2)CC1 (racemic) [Example 259, 5'-{[(1S,2S,4R)-2-amino-7-azabicyclo[2.2.1]heptan-7-yl]methyl}-3-fluoro-2'-(4-methylpiperidin-1-yl)-[1,1'-biphenyl]-4-carbonitrile] | 10 to 25
COC1CCN(c2ccc(CN3[C@@H]4CC[C@H]3[C@@H](N)C4)cc2-c2ccc(C#N)c(F)c2)CC1 (racemic) [Example 260, 5'-{[(1S,2S,4R)-2-amino-7-azabicyclo[2.2.1]heptan-7-yl]methyl}-3-fluoro-2'-(4-methoxypiperidin-1-yl)-[1,1'-biphenyl]-4-carbonitrile] | 10 to 25
N#Cc1ccc(-c2cc(Cl)cc(CN3[C@@H]4CC[C@H]3[C@@H](N)C4)c2-c2cncs2)cc1F (racemic) [Example 268, 3'-{[(1S,2S,4R)-2-amino-7-azabicyclo[2.2.1]heptan-7-yl]methyl}-5'-chloro-3-fluoro-2'-(1,3-thiazol-5-yl)-[1,1'-biphenyl]-4-carbonitrile] | 10 to 25
CN(CC1CC1)c1c(CN2[C@@H]3CC[C@H]2[C@@H](N)C3)cccc1-c1ccc(C#N)c(F)c1 (racemic) [Example 269, 3'-{[(1S,2S,4R)-2-amino-7-azabicyclo[2.2.1]heptan-7-yl]methyl}-2'-[(cyclopropylmethyl)(methyl)amino]-3-fluoro-[1,1'-biphenyl]-4-carbonitrile] | 100 to 1000
N#Cc1ccc(-c2cccc(CN3[C@@H]4CC[C@H]3[C@@H](N)C4)c2N2CCCC2)cc1F (racemic) [Example 270, 3'-{[(1S,2S,4R)-2-amino-7-azabicyclo[2.2.1]heptan-7-yl]methyl}-3-fluoro-2'-(pyrrolidin-1-yl)-[1,1'-biphenyl]-4-carbonitrile] | 100 to 1000
N#Cc1ccc(-c2cccc(CN3CCC[C@H]4NCC[C@H]43)c2-c2cncs2)cc1F (racemic) [Example 279, 3'-{[(3aR,7aR)-otcahydro-1H-pyrrolo[3,2-b]pyridin-4-yl]methyl}-3-fluoro-2'-(1,3-thiazol-5-yl)-[1,1'-biphenyl]-4-carbonitrile] | 10 to 25
N#Cc1ccc(-c2cccc(CN3[C@H]4CC[C@H](N)[C@@H]3CC4)c2Cl)cc1F (racemic) [Example 282, 3'-{[(1S,2S,5S)-2-amino-8-azabicyclo[3.2.1]octan-8-yl]methyl}-2'-chloro-3-fluoro-[1,1'-biphenyl]-4-carbonitrile] | 100 to 1000
N#Cc1ccc(-c2cccc(CN3[C@@H]4CC[C@H]3[C@@H](N)C4)c2C(F)F)cc1F (racemic) [Example 301, 3'-{[(1S,2S,4R)-2-amino-7-azabicyclo[2.2.1]heptan-7-yl]methyl}-2'-(difluoromethyl)-3-fluoro-[1,1'-biphenyl]-4-carbonitrile] | 25 to 100
N#Cc1ccc(-c2cccc(CN3[C@@H]4CC[C@H]3[C@@H](N)C4)c2C2=CCOC2)cc1F (racemic) [Example 303, 3'-{[(1S,2S,4R)-2-amino-7-azabicyclo[2.2.1]heptan-7-yl]methyl}-2'-(2,5-dihydrofuran-3-yl)-3-fluoro-[1,1'-biphenyl]-4-carbonitrile] | < 10
Cc1cc(CN2[C@@H]3CC[C@H]2[C@@H](N)C3)c(C2CC2)c(-c2ccc(C#N)c(F)c2)c1 (racemic) [Example 304, 3'-{[(1S,2S,4R)-2-amino-7-azabicyclo[2.2.1]heptan-7-yl]methyl}-2'-cyclopropyl-3-fluoro-5'-methyl-[1,1'-biphenyl]-4-carbonitrile] | 10 to 25
N#Cc1ccc(-c2cc(CN3[C@@H]4CC[C@H]3[C@@H](N)C4)ccc2Cl)cc1F (racemic) [Example 305, 5'-{[(1S,2S,4R)-2-amino-7-azabicyclo[2.2.1]heptan-7-yl]methyl}-2'-chloro-3-fluoro-[1,1'-biphenyl]-4-carbonitrile] | 25 to 100
